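Results reflect a 48-hour exposure of cells in 96-well plates to compound at five concentrations. GI50 = concentration required for 50% inhibition of growth. TGI: total growth inhibition.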
How the values were obtained:
Assay in all cases: NCI-60 cell line screen, 48 h
[1] = system: OVCAR-8 ovarian
[2] = system: MALME-3M melanoma
[3] = system: CCRF-CEM leukemia
[4] = system: SN12C renal
[5] = system: CAKI-1 renal
[6] = system: OVCAR-4 ovarian
[7] = system: NCI/ADR-RES ovarian
[8] = system: T-47D breast
[9] = system: HCT-15 colon
[10] = system: M14 melanoma
[11] = system: LOX IMVI melanoma
[12] = system: SK-MEL-28 melanoma
[13] = system: SK-MEL-2 melanoma
[14] = system: KM12 colon
[15] = system: NCI-H460 lung
[16] = system: SR leukemia
[17] = system: EKVX NSCLC
[18] = system: HCC-2998 colon
[19] = system: SF-295 CNS
[20] = system: MDA-MB-231 breast
[21] = system: HT29 colon
[22] = system: HL-60(TB) leukemia
[23] = system: SK-MEL-5 melanoma
[24] = system: IGROV1 ovarian
[25] = system: K-562 leukemia
[26] = system: A498 renal
[27] = system: MCF7 breast
[28] = system: SW-620 colon
[29] = system: HOP-92 NSCLC
[30] = system: UO-31 renal
[31] = system: COLO 205 colon
[32] = system: SNB-75 CNS
[33] = system: SF-539 CNS
[34] = system: MOLT-4 leukemia
[35] = system: HS 578T breast
[36] = system: NCI-H522 lung
[37] = system: U251 CNS
[38] = system: ACHN renal
[39] = system: UACC-257 melanoma
[40] = system: PC-3 prostate
[41] = system: MDA-MB-435
[42] = system: NCI-H226 lung
[43] = system: 786-0 renal
[44] = system: NCI-H23 lung
[45] = system: HOP-62 NSCLC
[46] = system: RXF 393 renal
[47] = system: RPMI-8226 leukemia
[48] = system: DU-145 prostate
[49] = system: OVCAR-5 ovarian
[50] = system: SK-OV-3 ovarian
[51] = system: TK-10 renal
[52] = system: UACC-62 melanoma
[53] = system: A549 NSCLC
[54] = system: OVCAR-3 ovarian
[55] = system: SF-268 CNS
[56] = system: HCT-116 colon

CCC(C)(C)c1ccc(OCCCCCCN2CCNCC2)cc1
GI50 [1]: 2.45 µM | TGI [1]: 5.3 µM | GI50 [2]: 1.94 µM | TGI [2]: 3.6 µM | GI50 [3]: 1.43 µM | TGI [3]: 4.64 µM | GI50 [4]: 3.48 µM | TGI [4]: 13.5 µM | GI50 [5]: 2.26 µM | TGI [5]: 7.09 µM | GI50 [6]: 1.96 µM | TGI [6]: 5.03 µM | GI50 [7]: 3.11 µM | TGI [7]: 8.95 µM | GI50 [8]: 1.72 µM | TGI [8]: 3.78 µM | GI50 [9]: 1.66 µM | TGI [9]: 3.39 µM | GI50 [10]: 1.92 µM | TGI [10]: 4.17 µM | GI50 [11]: 1.76 µM | TGI [11]: 3.21 µM | GI50 [12]: 1.74 µM | TGI [12]: 3.77 µM | GI50 [13]: 2.19 µM | TGI [13]: 4.74 µM | GI50 [14]: 1.88 µM | TGI [14]: 3.5 µM | GI50 [15]: 1.94 µM | TGI [15]: 3.87 µM | GI50 [16]: 1.25 µM | TGI [16]: 3.71 µM | GI50 [17]: 9.73 µM | TGI [17]: 27.1 µM | GI50 [18]: 2 µM | TGI [18]: 3.76 µM | GI50 [19]: 1.87 µM | TGI [19]: 3.6 µM | GI50 [20]: 1.44 µM | TGI [20]: 3.11 µM | GI50 [21]: 1.86 µM | TGI [21]: 4.72 µM | GI50 [22]: 1.76 µM | TGI [22]: 3.65 µM | GI50 [23]: 1.76 µM | TGI [23]: 3.24 µM | GI50 [24]: 2.63 µM | TGI [24]: 7.29 µM | GI50 [25]: 1.7 µM | TGI [25]: 3.93 µM | GI50 [26]: 6.82 µM | TGI [26]: 24.5 µM | GI50 [27]: 1.56 µM | TGI [27]: 3.2 µM | GI50 [28]: 1.95 µM | TGI [28]: 3.97 µM | GI50 [29]: 1.21 µM | TGI [29]: 6.82 µM | GI50 [30]: 1.93 µM | TGI [30]: 4.8 µM | GI50 [31]: 1.77 µM | TGI [31]: 3.51 µM | GI50 [32]: 1.46 µM | TGI [32]: 3.51 µM | GI50 [33]: 1.85 µM | TGI [33]: 3.65 µM | GI50 [34]: 2.03 µM | TGI [34]: 5.11 µM | GI50 [35]: 1.97 µM | TGI [35]: 5.17 µM | GI50 [36]: 2.23 µM | TGI [36]: 5.67 µM | GI50 [37]: 1.68 µM | TGI [37]: 3.45 µM | GI50 [38]: 2.19 µM | TGI [38]: 5.45 µM | GI50 [39]: 2.11 µM | TGI [39]: 4.43 µM | GI50 [40]: 2.6 µM | TGI [40]: 13.8 µM | GI50 [41]: 1.54 µM | TGI [41]: 3.09 µM | GI50 [42]: 3.87 µM | TGI [42]: 18 µM | GI50 [43]: 1.73 µM | TGI [43]: 3.23 µM | GI50 [44]: 2.85 µM | TGI [44]: 8.36 µM | GI50 [45]: 2.32 µM | TGI [45]: 6.09 µM | GI50 [46]: 1.47 µM | TGI [46]: 2.92 µM | GI50 [47]: 1.9 µM | TGI [47]: 4.41 µM | GI50 [48]: 2.39 µM | TGI [48]: 6.06 µM | GI50 [49]: 2.11 µM | TGI [49]: 5.39 µM | GI50 [50]: 11.3 µM | TGI [50]: 25.7 µM | GI50 [51]: 1.8 µM | TGI [51]: 3.46 µM | GI50 [52]: 1.76 µM | TGI [52]: 3.52 µM | GI50 [53]: 3.77 µM | TGI [53]: 13.7 µM | GI50 [54]: 2.73 µM | TGI [54]: 7.86 µM | GI50 [55]: 3.78 µM | TGI [55]: 14 µM | GI50 [56]: 1.7 µM | TGI [56]: 3.12 µM

Source: PubChem BioAssay (NCI)
